Test results taken from patent US11214540B2, “Compositions for treating neurodegenerative diseases” (COGNITION THERAPEUTICS, INC., priority 2017, dated 2022).

Experiment: log P
Type: physicochemical
Conditions: not given
From the text: The term “log P” refers to the partition coefficient of a compound. The partition coefficient is the ratio of concentrations of un-ionized compound in each of two solution phases, for example, octanol and water. To measure the partition coefficient of ionizable solute compounds, the pH of the aqueous phase is adjusted such that the predominant form of the compound is un-ionized. The logarithm of the ratio of concentrations of the un-ionized solute compound in the solvents is called log P. The log P is a measure of lipophilicity. For example, log Poct/wat=log([solute]octanol/[solute]un-ionized,water).
Combined Results for particular compounds described herein, with respect to log P, membrane trafficking (uM), sigma-2 receptor affinity, sigma-1 receptor affinity microsomal stability in mouse liver microsomes (MLM) (t1/2, min), t1/2 normalized to CT)10914 and in vitro toxicity potassium channel hERG (IC50, nM) are provided in Table 1: […]
For `COCCC1(O)CCN(C(C=C(C)C)CC(C)(C)c2ccccc2)CC1` (centres unmarked) [Compound 219], the “log P” value was 3.91. For `CC(C)(CCN1CCC(CCO)CC1)c1ccccc1` [Compound 304], the “log P” value was 3.38. With `CC(C)=CC(CC(C)(C)c1ccc(OC(C)(C)C)cc1)N1CCC(C)(O)CC1` (centres unmarked) [Compound 169] the “log P” value was 5.15. In the case of `COC[C@H]1CCCN1C(C=C(C)C)CC(C)(C)c1ccc(Cl)cc1` (some centres unmarked) [Compound 246], the “log P” value is reported as 5.68. With `CC(C)(CCN1CCC(C2CCOCC2)CC1)c1ccccc1` [Compound 313] the “log P” value was 4.28. For `CC(C)=CC(CC(C)(C)c1ccc(F)cc1)N1CCC(O)(c2ccccc2)CC1` (centres unmarked) [Compound 221], the “log P” value was 5.76. In the case of `COc1cc(CCC(C)(C)N2Cc3cccc(C(=O)N4CCN(C(=O)CN)CC4)c3C2)ccc1O` [Compound 270], the “log P” value is reported as 1.81. In the case of `CC(C)=CC(NCC1CCOCC1)C(C)(C)Oc1ccccc1` (centres unmarked) [Compound 166], the “log P” value is reported as 3.99. In the case of `CCCCC1(OC(=O)NC(C)C)CCN(C(C=C(C)C)CC(C)(C)c2ccc(Cl)cc2)CC1` (centres unmarked) [Compound 225], the “log P” value is reported as 7.37. For `COC(=O)[C@@H]1CCCN1CCC(C)(C)c1ccccc1` [Compound 293], the “log P” value was 3.48. For `CCOC(=O)C1CCN(C(C)CC(C)(C)c2ccc(C(F)(F)F)cc2)CC1` (centres unmarked) [Compound 277], the “log P” value was 5.11. For `CC(C)=C[C@H](CC(C)(C)c1ccc(C(F)(F)F)cc1)N1CCC[C@@H]1CO` [Compound 243], the “log P” value was 5.31. With `CC(C)(CCN1CC[C@@H](O)C1)c1ccccc1` [Compound 301] the “log P” value was 2.49. With `COc1cc(CCC(C)(C)N2Cc3cccc(C(=O)N4CCN(C(=O)[C@@H]5CCCN5C)CC4)c3C2)ccc1O` [Compound 274] the “log P” value was 3.24. With `CC(C)=CC(CC(C)(C)c1ccccc1)N1CCC(C2CCOCC2)CC1` (centres unmarked) [Compound 204] the “log P” value was 5.7. With `CC(C)=CC(CC(C)(C)c1ccc(C(F)(F)F)cc1)N1CCC(CCOC(C)C)CC1` (centres unmarked) [Compound 164] the “log P” value was 7.1. For `CC(C)=CC(CC(C)(C)c1ccc(C(F)(F)F)cc1)N1CCC(C)(OC(=O)NC(C)C)CC1` (centres unmarked) [Compound 228], the “log P” value was 6.24. For `COCC1CCCN1C(C=C(C)C)CC(C)(C)c1ccc(Cl)cc1` (centres unmarked) [Compound 234], the “log P” value was 5.68. In the case of `COc1cc(CCC(C)(C)N2Cc3cccc(C(=O)N4CCN(C(=O)[C@@H](N)Cc5ccccc5)CC4)c3C2)ccc1O` [Compound 259], the “log P” value is reported as 4.03. With `CCCCC1(O)CCN(C(C=C(C)C)CC(C)(C)c2ccc(F)cc2)CC1` (centres unmarked) [Compound 222] the “log P” value was 5.81. In the case of `COC(=O)N1CCN(C(C=C(C)C)CC(C)(C)c2ccc(Cl)cc2)CC1` (centres unmarked) [Compound 197], the “log P” value is reported as 4.95. For `CC(C)=CC(NCC(C)C)C(C)(C)Oc1ccc(F)cc1` (centres unmarked) [Compound 176], the “log P” value was 4.96. In the case of `CCOC(=O)C1CCN(CCC(C)(C)c2ccccc2)CC1` [Compound 299], the “log P” value is reported as 3.81. For `COC[C@@H]1CCCN1CCC(C)(C)c1ccc(Cl)cc1` [Compound 289], the “log P” value was 4.26. With `CCCCC1(O)CCN(C(C=C(C)C)CC(C)(C)c2ccc(Cl)cc2)CC1` (centres unmarked) [Compound 214] the “log P” value was 6.27. With `CC(C)=CC(CC(C)(C)c1ccc(F)cc1)N1CCN(S(C)(=O)=O)CC1` (centres unmarked) [Compound 154] the “log P” value was 3.37. For `CCCCC1(O)CCN(C(C=C(C)C)CC(C)(C)c2ccccc2)CC1` (centres unmarked) [Compound 223], the “log P” value was 5.67. In the case of `CC(C)=CC(CC(C)(C)c1ccc(C(F)(F)F)cc1)N1CCN(C(=O)c2ccccc2)CC1` (centres unmarked) [Compound 155], the “log P” value is reported as 6.46. In the case of `COC[C@H]1CCCN1C(C=C(C)C)CC(C)(C)c1ccc(C(F)(F)F)cc1` (some centres unmarked) [Compound 247], the “log P” value is reported as 5.95. For `CCOC(=O)N1CCN(C(C=C(C)C)CC(C)(C)c2ccc(C(F)(F)F)cc2)CC1` (centres unmarked) [Compound 208], the “log P” value was 5.58. For `COCCOCCC1CCN([C@@H](C=C(C)C)CC(C)(C)c2ccc(C(F)(F)F)cc2)CC1` [Compound 264], the “log P” value was 6.28. In the case of `COc1cc(CCC(C)(C)N2Cc3cccc(C(=O)N4CCN(C(=O)CNC(C)=O)CC4)c3C2)ccc1O` [Compound 279], the “log P” value is reported as 1.63. With `COCCCC1CCN(C(C=C(C)C)CC(C)(C)c2ccc(OC(C)C)cc2)CC1` (centres unmarked) [Compound 171] the “log P” value was 6.5. For `COC[C@H]1CCCN1[C@H](C=C(C)C)CC(C)(C)c1ccc(Cl)cc1` [Compound 235], the “log P” value was 5.68. With `CC(C)=C[C@@H](CC(C)(C)c1ccc(F)cc1)N1CCC[C@@H]1CO` [Compound 241] the “log P” value was 4.57. In the case of `COC(=O)[C@H]1CCCN1CCC(C)(C)c1ccc(Cl)cc1` [Compound 290], the “log P” value is reported as 4.08. For `CCOC(=O)C1CCN(C(C=C(C)C)CC(C)(C)c2ccc(F)cc2)CC1` (centres unmarked) [Compound 267], the “log P” value was 5.37. For `CC(C)(CCN1CCC(C)(c2ccccc2)CC1)c1ccc(F)cc1` [Compound 316], the “log P” value was 4.34. In the case of `CC(C)(CCN1CC[C@@H](O)C1)c1ccc(Cl)cc1` [Compound 288], the “log P” value is reported as 3.1. For `CC(C)(CCN1CC[C@@H](O)C1)c1ccc(C(F)(F)F)cc1` [Compound 315], the “log P” value was 3.37. In the case of `COc1cc(CCC(C)(C)N2Cc3cccc(C(=O)N4CCN(C(=O)OCc5oc(=O)oc5C)CC4)c3C2)ccc1O` [Compound 309], the “log P” value is reported as 3.96. With `COc1cc(CCC(C)(C)N2Cc3cccc(C(=O)N4CCN(C(=O)CN(C)C)CC4)c3C2)ccc1O` [Compound 258] the “log P” value was 2.62. For `CC(C)=CC(CC(C)(C)c1ccc(N2CCOCC2)cc1)N1CCC(C)(O)CC1` (centres unmarked) [Compound 148], the “log P” value was 4.14. In the case of `COCCOCCC1CCN(CCC(C)(C)c2ccc(Cl)cc2)CC1` [Compound 303], the “log P” value is reported as 4.58. With `CC(C)=CC(CC(C)(C)c1ccc(Cl)cc1)N1CCC[C@H]1CO` (some centres unmarked) [Compound 237] the “log P” value was 5.04. With `COc1ccc(C(C)(C)CC(c2ccccc2)N2CCOCC2)cc1` (centres unmarked) [Compound 118] the “log P” value was 4.64. For `COC[C@@H]1CCCN1CCC(C)(C)c1ccc(F)cc1` [Compound 319], the “log P” value was 3.8. In the case of `CC(C)=CC(CC(C)(C)c1ccc(F)cc1)N1CCN(C)C(=O)C1` (centres unmarked) [Compound 203], the “log P” value is reported as 3.75. With `CC(C)=CC(CC(C)(C)c1ccc(S(C)(=O)=O)cc1)NCC1CCOCC1` (centres unmarked) [Compound 88] the “log P” value was 3.54. For `COCCNC(C=C(C)C)C(C)(C)Oc1ccccc1` (centres unmarked) [Compound 172], the “log P” value was 3.52. With `CC(C)(CC(c1ccccc1)N1CCOCC1)c1ccc(Cl)cc1` (centres unmarked) [Compound 120] the “log P” value was 5.4. With `COc1cc(CCC(C)(C)N2Cc3cccc(C(=O)N4CCN(C(=O)C(Cc5ccccc5)N(C)C)CC4)c3C2)ccc1O` (centres unmarked) [Compound 271] the “log P” value was 4.85. In the case of `COC1CN(C(C=C(C)C)CC(C)(C)c2ccc(Cl)cc2)C1` (centres unmarked) [Compound 167], the “log P” value is reported as 5.1. For `CC(C)=CC(CC(C)(C)c1ccc(Cl)cc1)N1CCN(C(=O)OC(C)(C)C)CC1` (centres unmarked) [Compound 194], the “log P” value was 6.01. For `C[C@@H]1CCN(CCC(C)(C)c2ccc(F)cc2)C1` [Compound 323], the “log P” value was 4.15. In the case of `CC(C)(CC(NCC1CCOCC1)c1ccccc1)c1ccc(Cl)cc1` (centres unmarked) [Compound 121], the “log P” value is reported as 5.66. In the case of `COCCNC(C=C(C)C)C(C)(C)Oc1ccc(Cl)cc1` (centres unmarked) [Compound 175], the “log P” value is reported as 4.13. For `COC(=O)C1CCN(CCC(C)(C)c2ccc(F)cc2)CC1` [Compound 326], the “log P” value was 3.6. With `CC(C)=C[C@H](CC(C)(C)c1ccc(C(F)(F)F)cc1)N1CCC(C)(O)CC1` [Compound 265] the “log P” value was 5.13. For `CC(C)(CC(c1ccccc1)N1CCC(C2CCOCC2)CC1)c1ccc(Cl)cc1` (centres unmarked) [Compound 119], the “log P” value was 6.67. For `COc1ccc(C(C)(C)CC(c2ccccc2)N2CCC(C3CCOCC3)CC2)cc1` (centres unmarked) [Compound 122], the “log P” value was 5.91. In the case of `CC(C)(CC(c1ccccc1)N1CCCCC1)c1ccc(Cl)cc1` (centres unmarked) [Compound 117], the “log P” value is reported as 6.47. In the case of `CC(C)=CC(CC(C)(C)c1ccc(F)cc1)N1CCC(C)(OC(=O)NC(C)C)CC1` (centres unmarked) [Compound 215], the “log P” value is reported as 5.5. With `CC(C)(CCN1CCC(C)(c2ccccc2)CC1)c1ccccc1` [Compound 297] the “log P” value was 5.81. For `CC(C)=CC(CC(C)(C)c1ccc(F)cc1)N1CCN(S(=O)(=O)N(C)C)CC1` (centres unmarked) [Compound 195], the “log P” value was 3.36. For `CC(C)=CC(NCC(C)C)C(C)(C)Oc1ccc(Cl)cc1` (centres unmarked) [Compound 177], the “log P” value was 5.42. For `COC[C@H]1CCCN1CCC(C)(C)c1ccc(F)cc1` [Compound 318], the “log P” value was 3.8. For `CC(C)=CC(CC(C)(C)c1ccc(C(F)(F)F)cc1)N1CCN(C(=O)OCC(C)C)CC1` (centres unmarked) [Compound 209], the “log P” value was 6.47. In the case of `CC(C)=CC(CC(C)(C)c1ccc(OC(C)(C)C)cc1)N1CCC(O)CC1` (centres unmarked) [Compound 170], the “log P” value is reported as 4.87. In the case of `COc1cc(CCC(C)(C)N2Cc3cccc(C(=O)N4CCN(C(=O)[C@H](C)N)CC4)c3C2)ccc1O` [Compound 269], the “log P” value is reported as 2.2. In the case of `CC(C)(CCN1CCC(C2CCOCC2)CC1)c1ccc(Cl)cc1` [Compound 193], the “log P” value is reported as 4.89. In the case of `CC(C)=CC(CC(C)(C)c1ccc(Cl)cc1)N1CCNC(=O)C1` (centres unmarked) [Compound 224], the “log P” value is reported as 3.98. For `COc1cc(CCC(C)(C)N2Cc3cccc(C(=O)N4CCN(C(=O)[C@H](C)O)CC4)c3C2)ccc1O` [Compound 281], the “log P” value was 2.48. For `COC(=O)[C@H]1CCCN1CCC(C)(C)c1ccccc1` [Compound 294], the “log P” value was 3.48. With `CC(C)=CC(CC(C)(C)c1ccc(N2CCOCC2)cc1)N1CCC2(CCOCC2)CC1` (centres unmarked) [Compound 147] the “log P” value was 5.16. For `CCOC(=O)C1CCN(CCC(C)(C)c2ccc(F)cc2)CC1` [Compound 322], the “log P” value was 3.95.

Same assay, conditions: octanol/water
`COC[C@@H]1CCCN1CCC(C)(C)c1ccc(C(F)(F)F)cc1` [Example 317] showed a logP of 4.53. `COC1CCN(CCC(C)(C)c2ccc(C(F)(F)F)cc2)CC1` [Example 191] gave a logP of 4.07. Compound `CC(C)(CCN1CCC(O)(c2ccccc2)CC1)c1ccc(C(F)(F)F)cc1` [Example 307] has a logP of 5.08. Work on `CC(C)(CCN1CCC(CO)CC1)c1ccc(C(F)(F)F)cc1` [Example 306] yielded a logP of 3.89.
